The subject of one data set is M. tuberculosis. Description: microbe, parasite or virus in culture. As to conditions: Mycobacterium tuberculosis, 120 h; read-out: QUM (MIC80). The class given is cell-based.
For a further data set, the system named is M. tuberculosis H37Rv. Nature of the data set: In vivo activity in a murine model of acute tuberculosis infection (lung CFU). The following applies: 50 mg/kg orally once daily, 3 days of treatment starting at day 6, female BalbC mice. As for the experimental part:
The effect of compounds 171 and 175 on the bacterial load of TB-infected mice was compared to that of the reference compound Isoniazid (INH). 8-week old female BalbC mice were infected with 8×10^6 M. tuberculosis H37Rv via intranasal inoculation. Mice were sacrificed at day 1 to control the number of CFU in the lungs. In the acute model of infection, mice were treated for 3 days, starting at day 6. Compounds were freshly dissolved in a 20% d-α-tocopheryl polyethylene glycol 1000 succinate (ETPGS) solution and administered by oral gavage as single dose per day. Bacterial load was assessed in lungs after homogenizing the organs in 1×PBS. Serial dilutions of organs homogenates were spread on Middlebrook 7H11 plates and CFU were determined after 3 weeks incubation at 37° C. under 5% CO2.

≈ marks a conversion by molar mass, not a printed value.

As for `CCc1nc2ccc(Cl)cn2c1C(=O)NCc1ccc(CN2CCOCC2)cc1` [Compound 284], the melting point came to 133 °C. In addition, in the data set on M. tuberculosis, the MIC80 is under 1 µM.
Turning to `CCc1nc2cc(Cl)ccn2c1C(=O)NCc1ccc(CN2CCOCC2)cc1` [Compound 285], the melting point was found to be 107 °C. In addition, in the data set with M. tuberculosis, the MIC80 is under 1 µM.
`CCc1nc2cc(Cl)ccn2c1C(=O)NCc1nc2cc(-c3ccc(OC(F)(F)F)cc3)ccc2o1` [Compound 265] returned a melting point of over 220 °C. Besides, the MIC80 with M. tuberculosis was 1 to 20 µM (≈ 0.515 to 10.3 µg/mL).
`CCc1nc2ccccn2c1C(=O)NCc1ccc(N(C)c2ccc(OC(F)(F)F)cc2)cc1` [Compound 288] registered a melting point of 120 °C. Further, the MIC80 in the data set with M. tuberculosis was under 1 µM.
On to `CCc1nc2cc(C)ccn2c1C(=O)NCc1ccc(N2CCC(c3ccc(OC(F)(F)F)cc3)CC2)cc1` [Compound 171], for which, in the data set with M. tuberculosis H37Rv, the “CFU in the lungs compared to untreated mice” value is given as “reduction of CFU compared to untreated mice”. Further, in the data set on M. tuberculosis, the MIC80 is under 1 µM.
On to `CCc1nc2cc(Cl)ccn2c1C(=O)NCc1ccc(C2CCOCC2)cc1` [Compound 259], for which the melting point is > 156.6 °C (dec.). The MIC80 with M. tuberculosis was under 1 µM.
In turn, `COc1ccc2nc(C)c(C(=O)NCc3ccc(N4CCC(c5ccc(OC(F)(F)F)cc5)CC4)cc3)n2c1` [Compound 292] had a melting point of 183 °C. In the data set with M. tuberculosis, the MIC80 was under 1 µM.
For the molecule `CCc1nc2ccc(Cl)cn2c1C(=O)NCc1ccc(CC2CCOCC2)cc1` [Compound 253], the melting point was in the range of 132.2 to 133 °C. In the data set on M. tuberculosis, the MIC80 is under 1 µM.
Molecule `CCc1nc2ccc(Cl)cn2c1C(=O)NCc1cc2cc(Cl)ccc2o1` [Compound 261] gave a melting point of 223.5 to 225.6 °C. The MIC80 in the data set on M. tuberculosis is under 1 µM.
In the case of `CCc1nc2cc(Cl)ccn2c1C(=O)NCc1ccc(N2CC(Cc3ccc(F)cc3)OC2=O)cc1` (stereo not shown) [Compound 270], the melting point was > 96.9 °C (dec.). Further, the MIC80 in the data set with M. tuberculosis is under 1 µM.
In the case of `CCc1nc2ccc(Cl)cn2c1C(=O)NCc1ccc(C2CCOCC2)cc1` [Compound 258], the melting point was > 195.5 °C (dec.). For the same molecule, the MIC80 in the data set with M. tuberculosis was under 1 µM.
The like results for `CCc1nc2cc(Cl)ccn2c1C(=O)NCc1ccc(N(C)c2ccc(OC(F)(F)F)cc2)cc1` [Compound 287] were, in that order, 134 °C and under 1 µM.
`Cc1ccc2nc(C)c(C(=O)NCc3ccc(N4CCC(c5ccc(F)cc5)CC4)cc3)n2c1` [Compound 293] came in with a melting point of 181 °C. Further, the MIC80 with M. tuberculosis was under 1 µM.
The like results for `CCc1nc2ccc(Cl)cn2c1C(=O)NCc1ccc(N(C)c2ccc(OC(F)(F)F)cc2)cc1` [Compound 286] were, in that order, 138 °C and under 1 µM.
Regarding `CCc1nc2ccc(Cl)cn2c1C(=O)NCc1nc2ccc(Cl)cc2n1C` [Compound 262], the melting point is over 220 °C. In addition, the MIC80 in the data set on M. tuberculosis is over 20 µM.
On to `CCc1nc2ccccn2c1C(=O)NCc1ccc(C2CCOCC2)cc1` [Compound 257], for which the melting point is > 133.7 °C (dec.). Besides, the MIC80 with M. tuberculosis was under 1 µM.
Molecule `CCc1nc2cc(Cl)ccn2c1C(=O)NCc1ccc(CN2CCOC2=O)cc1` [Compound 283] yielded a melting point of 172 °C. In addition, the MIC80 in the data set on M. tuberculosis is 1 to 20 µM (≈ 0.413 to 8.26 µg/mL).
On to `CCc1nc2ccc(Cl)cn2c1C(=O)NCc1nc2ccc(Cl)cc2s1` [Compound 266], for which the melting point is over 220 °C. Besides, the MIC80 in the data set with M. tuberculosis lay within 1 to 20 µM (≈ 0.405 to 8.11 µg/mL).
`COc1ccc2nc(C)c(C(=O)NCc3ccc(N4CCC(c5ccc(F)cc5)CC4)cc3)n2c1` [Compound 289] showed a melting point of 192 °C. Also, the MIC80 with M. tuberculosis is under 1 µM.
The like results for `COc1ccc2nc(C)c(C(=O)NCc3ccc(N4CCC(c5ccc(C)cc5)CC4)cc3)n2c1` [Compound 290] were, in that order, 178 °C and under 1 µM.
On the same counts, the results for `COc1ccc(C2CCN(c3ccc(CNC(=O)c4c(C)nc5ccc(C)cn45)cc3)CC2)cc1` [Compound 295] are 184 °C and under 1 µM.
Consider `CCc1nc2ccc(Cl)cn2c1C(=O)NCc1nc2ccc(Cl)cc2o1` [Compound 264], for which the melting point was 201.1 to 201.8 °C. The MIC80 in the data set on M. tuberculosis was 1 to 20 µM (≈ 0.389 to 7.78 µg/mL).
Consider `CCc1nc2ccc(F)cn2c1C(=O)NCc1ccc(N2CCC(c3ccc(OC(F)(F)F)cc3)CC2)cc1` [Compound 267], for which the melting point was > 167.9 °C (dec.). Besides, the MIC80 in the data set on M. tuberculosis was under 1 µM.
For `CCc1nc2ccc(Cl)cn2c1C(=O)NCc1nc2cc(Cl)ccc2n1C` [Compound 263], the melting point is over 220 °C. For the same molecule, the MIC80 in the data set with M. tuberculosis is over 20 µM.
For the molecule `CCc1nc2ccc(Cl)cn2c1C(=O)NCc1cccc(N2CCC(Oc3ccc(OC(F)(F)F)cc3)CC2)c1` [Compound 255], the melting point lay in the range of 126.3 to 127.2 °C. The MIC80 in the data set on M. tuberculosis is over 20 µM.
On to `CCc1nc2ccc(Cl)cn2c1C(=O)NCc1cccc(CC(=O)Nc2ccc(F)cc2)c1` [Compound 250], for which the melting point was > 198.8 °C (dec.). In the data set with M. tuberculosis, the MIC80 was over 20 µM.
In the case of `CCc1nc2ccc(Cl)cn2c1C(=O)NCc1cccc(N2CCC(c3ccc(OC(F)(F)F)cc3)CC2)c1` [Compound 249], the melting point lay within 135.5 to 136.4 °C. Also, in the data set on M. tuberculosis, the MIC80 is over 20 µM.
Turning to `CCc1nc2cc(F)ccn2c1C(=O)NCc1ccc(N2CCC(c3ccc(OC(F)(F)F)cc3)CC2)cc1` [Compound 175], the “CFU in the lungs compared to untreated mice” value in the data set on M. tuberculosis H37Rv was “reduction of CFU compared to untreated mice”. In addition, the MIC80 with M. tuberculosis is under 1 µM.
In turn, `CCc1nc2ccc(Cl)cn2c1C(=O)NCc1ccc(N2CCC(C(=O)Cc3ccc(F)cc3)CC2)cc1` [Compound 244] registered a melting point of 216.2 to 220.7 °C.
Regarding `CCc1nc2ccc(Cl)cn2c1C(=O)NCc1cccc(N(C)Cc2ccc(OC(F)(F)F)cc2)c1` [Compound 247], the melting point is > 142.3 °C (dec.). For the same molecule, the MIC80 in the data set with M. tuberculosis lay in the range of 1 to 20 µM (≈ 0.517 to 10.3 µg/mL).
The like results for `CCc1nc2ccc(Cl)cn2c1C(=O)NCc1cccc(N2CCN(c3ccc(OC(F)(F)F)cc3)CC2)c1` [Compound 251] were, in that order, > 168 °C (dec.) and 1 to 20 µM (≈ 0.558 to 11.2 µg/mL).
Take `CCc1nc2ccc(Cl)cn2c1C(=O)NCc1ccc(CN2CCOC2=O)cc1` [Compound 282]: the melting point turned out to be 179 °C. Besides, in the data set on M. tuberculosis, the MIC80 was 1 to 20 µM (≈ 0.413 to 8.26 µg/mL).
For `Cc1ccc2nc(C)c(C(=O)NCc3ccc(N4CCC(c5ccc(Cl)cc5)CC4)cc3)n2c1` [Compound 294], the melting point was 188 °C. In addition, the MIC80 with M. tuberculosis was under 1 µM.
The like results for `Cc1ccc2nc(C)c(C(=O)NCc3ccc(N4CCC(c5ccc(OC(F)(F)F)cc5)CC4)cc3)n2c1` [Compound 296] were, in that order, 184 °C and under 1 µM.
Regarding `COc1ccc2nc(C)c(C(=O)NCc3ccc(N4CCC(c5ccc(C(F)(F)F)cc5)CC4)cc3)n2c1` [Compound 291], the melting point came to 207 °C. Further, in the data set on M. tuberculosis, the MIC80 was under 1 µM.
In the case of `CCc1nc2ccc(Cl)cn2c1C(=O)NCc1cc2cc(Cl)ccc2s1` [Compound 256], the melting point was over 220 °C. Also, in the data set on M. tuberculosis, the MIC80 was under 1 µM.
Molecule `CCc1nc2cc(Cl)ccn2c1C(=O)NCc1ccc(N2CC(COc3ccc(F)cc3)OC2=O)cc1` (stereo not shown) [Compound 271] showed a melting point of over 97.1 °C. Further, in the data set on M. tuberculosis, the MIC80 was in the range of 1 to 20 µM (≈ 0.523 to 10.5 µg/mL).
In the case of `CCc1nc2c(F)cccn2c1C(=O)NCc1ccc(N2CCC(c3ccc(OC(F)(F)F)cc3)CC2)cc1` [Compound 268], the melting point was > 177.7 °C (dec.). Further, the MIC80 in the data set with M. tuberculosis is under 1 µM.
On to `CCc1nc2cc(Cl)ccn2c1C(=O)NCc1ccc(CC2CCOCC2)cc1` [Compound 254], for which the melting point was > 125.9 °C (dec.). Besides, in the data set on M. tuberculosis, the MIC80 was under 1 µM.
For `CCc1nc2cc(Cl)ccn2c1C(=O)NCc1nc2ccc(-c3ccc(OC(F)(F)F)cc3)cc2o1` [Compound 269], the melting point was over 220 °C. Besides, the MIC80 in the data set on M. tuberculosis is under 1 µM.
As for `CCc1nc2ccc(OC)cn2c1C(=O)NCc1ccc(N2CCC(c3ccc(OC(F)(F)F)cc3)CC2)cc1` [Compound 182], the MIC80 in the data set with M. tuberculosis was under 1 µM.
Turning to `CCc1nc2ccc(F)cn2c1C(=O)NCc1ccc(N2CCN(c3ccc(OC)cc3)CC2)cc1` [Compound 149], in the data set on M. tuberculosis, the MIC80 was under 1 µM.
`CCc1nc2ccc(Cl)cn2c1C(=O)NCc1cccc(OCc2ccc(OC(F)(F)F)cc2)c1` [Compound 248]: the melting point was > 142.7 °C (dec.). Further, the MIC80 in the data set with M. tuberculosis is 1 to 20 µM (≈ 0.504 to 10.1 µg/mL).
For the molecule `CCc1nc2ccc(Br)cn2c1C(=O)NCc1ccc(N2CCC(c3ccc(C)cc3)CC2)cc1` [Compound 79], the MIC80 in the data set on M. tuberculosis is under 1 µM.
Regarding `CCc1nc2cc(Cl)ccn2c1C(=O)NCc1ccc(N2CCC(c3ccc(C)cc3)CC2)cc1` [Compound 221], the MIC80 in the data set with M. tuberculosis was under 1 µM.
As to `CCc1nc2ccc(C)cn2c1C(=O)NCc1ccc(N2CCC(c3ccc(OC(F)(F)F)cc3)CC2)cc1` [Compound 174], the MIC80 in the data set on M. tuberculosis is under 1 µM.
Take `CCc1nc2ccc(F)cn2c1C(=O)NCc1ccc(N2CCN(c3ccccc3)CC2)cc1` [Compound 71]: the MIC80 in the data set on M. tuberculosis was under 1 µM.
Take `CCc1nc2c(F)cccn2c1C(=O)NCc1ccc(N2CCC(c3ccccc3)CC2)cc1` [Compound 167]: the MIC80 in the data set on M. tuberculosis is under 1 µM.
For `CCc1nc2cc(Cl)ccn2c1C(=O)NCc1ccc2oc(CN3CCOCC3)nc2c1` [Compound 332], the MIC80 in the data set on M. tuberculosis is 1 to 20 µM (≈ 0.454 to 9.08 µg/mL).
On to `CCc1nc2cc(OC)ccn2c1C(=O)NCc1ccc(N2CCC(c3ccc(OC)cc3)CC2)cc1` [Compound 92], for which the MIC80 with M. tuberculosis is under 1 µM.
Regarding `CCc1nc2cc(C(F)(F)F)ccn2c1C(=O)NCc1ccc(N2CCC(c3ccc(C)cc3)CC2)cc1` [Compound 24], the MIC80 in the data set with M. tuberculosis was under 1 µM.

The melting point is the temperature of the solid-liquid transition.

(Values after patent US20160185774A1, “Anti-Infective Compounds” (priority 2013, published 2016).)
